Data: patent US7173063B1, “Topoisomerase poisons for the treatment of proliferative disorders” (Fred Hutchinson Cancer Research Center, priority 2000, dated 2007)

How the values were obtained:
[1] = system: DSB repair defective rad50 and rad52 strains of Saccharomyces cerevisiae; format: cell-based; settings: relative growth (OD660) vs solvent control
From the text: The strains are derived from the A364a genetic background, with the exception of BY4705, which is derived from the S288C background. Gene disruptions were generated by PCR fragment directed replacement (Baudin, et al., Nucleic Acids Research 21: 3329–30 (1993), Guldener, et al., Nucleic Acids Research 24: 2519–24 (1996)). Yeast overexpressing topoisomerase II was constructed by a PCR fragment directed promoter replacement of the topoisomerase II promoter with the yeast GPD promoter flanked upstream by the URA3 marker. All strains (except BY4705) bear the pleitropic drug sensitizing mutations erg6, pdr1, and pdr3 (Balzi, et al., Journal of Bioenergetics & Biomembranes 27: 71–6 (1995), Delaveau, et al, Molecular & General Genetics 244: 501–11 (1994), Gaber, et al., Molecular & Cellular Biology 9: 3447–56 (1989), Saunders, et al., Canadian Journal of Genetics & Cytology, 24: 493–503 (1982). Subik, et al, Current Genetics 10: 665–70 (1986)). The haploid yeast strain BY4705 (Brachmann, et al., Yeast 14: 115–32 (1998)) was used in the experiments described in FIG. 5. Plasmids expressing yeast or human topoisomerase I genes under the GAL promoter (Knab, et al., Journal of Biological Chemistry 268: 22322–30 (1993). Knab, et al., Journal of Biological Chemistry 270: 6141–8 (1995)) were transformed into BY4705 using standard procedures.
Yeast toxicity assays were performed essentially as follows: Exponentially growing cultures of the appropriate strains were diluted in synthetic complete media to a concentration of 7.4×10^4 cells/mL, and aliquots (135 μL) were transferred to each well of clear flat-bottomed 96 well plates. Compounds were added in duplicate or triplicate as 15 μL of the appropriate dilution in 5% DMSO. A 15 μL portion of 5% DMSO was added to control wells. […] Cell growth (OD660) in treated wells was plotted as a percentage of the growth in at least four averaged solvent control wells for the same strain. Camptothecin sodium salt (camptothecin Na) was the agent used in all yeast assays as standard.

ACHN, SW620, A549, MDA-N = assay: Thymidine incorporation toxicity assay in four cancer derived cell lines; format: cell-based, human; settings: for correlation between MDR1 activity and toxicity/sensitivity: A549, SW620, ACHN (MDR1 10, 31, 120); for cell line against which most effective: four tumor derived cell lines
Procedure: (§1) Cell lines were grown at 37° C. in an atmosphere of 5% CO2. The chicken pre-B cell line DT40 and its derivatives (Bezzubova, et al., Cell 89: 185–93 (1997), Takata, et al., EMBO Journal 17: 5497–508 (1998), Yamaguchi-Iwai, et al., Molecular & Cellular Biology 18: 6430–5 (1998)) were grown in RPMI containing 10% fetal calf serum and 1% chicken serum. The remaining cell lines were grown in DMEM with 10% fetal calf serum.
(§2) Toxicity assays in mammalian cell lines were performed using tritiated thymidine incorporation as a measure of the number of viable cells. […] Drug toxicity was measured as follows:
(§3) Cells were plated at a density of 500 cells per well in opaque 96 well plates (Packard) in a volume of 135 μL per well of the appropriate media. The plates were incubated overnight to allow cell adherence. Seven two-fold dilutions of the test compounds were added in a volume of 15 μL per well in triplicate, and 15 μL of media containing an appropriate concentration of DMSO was added to control wells in triplicate. Plates were incubated at 37° C. for 96 hours. The media was then replaced with 100 μL per well of the appropriate media containing 2 μCi/mL of (methyl-^3H) thymidine (Amersham Pharmacia Biotech), then plates were incubated for a further 24 hours at 37° C. Cells were washed three times with PBS, then 100 μL per well of scintillant was added (Microscint 20, Packard), and sealed plates were counted in a microplate reader (Packard Topcount). For suspension chicken cells, (methyl-^3H) thymidine was added directly to the drug-containing media at a concentration of 20 μCi/mL (comprising one tenth of the media volume) and incubated overnight. The suspension cells were transferred to a UniFilter GF/C plate (Packard) and washed with PBS in a plate washer (Packard). After drying, 25 μL per well of scintillant (Microscint 20, Packard) was added, and sealed plates were counted. Toxicity is expressed as a percentage of the control counts. For experiments involving shorter exposures to compounds, cells were grown in the presence of compound for the appropriate time, then the media was replaced with fresh drug-free media, and incubation continued for the remainder of 96 hours, followed by the normal tritiated thymidine uptake and washing protocol.
A common mechanism of tumor resistance to chemotherapeutic agents is overexpression of the drug efflux protein MDR1 (Kane, et al., Advances in Drug Research 28: 182–252 (1996), Nooter, et al., Leukemia Research 18: 233–43 (1994)). MDR1 is overexpressed in many tumor derived cell lines (for instance see http://dtp.nci.nih.gov/), and its overexpression inversely correlates with sensitivity to certain compounds (Kane, et al., Advances in Drug Research 28: 182–252 (1996)).

Rat1a fibroblasts [2] = assay: Effect of exposure time on toxicity in Rat1a fibroblasts; format: cell-based, rat; settings: for toxicity of four hour versus six hour exposure: total incubation 96 hours; for toxicity with a two hour exposure: additional experiments
Procedure: as §3

Rat1a fibroblasts [3] = assay: Effect of co-treatment with hydroxyurea (HU) on toxicity in Rat1a fibroblasts; format: cell-based, rat; settings: six-hour exposure; 0, 0.25, 0.5 or 1 mM HU
Procedure: FIG. 6 illustrates the effect of exposure time and hydroxyurea on the toxicity of compound Ia and compound IIa. […] Rat1a fibroblasts were exposed to compound during growth for either four or six hours, the media was changed, then cells were grown for an appropriate period such that total incubation time was 96 hours, and processed as described in the Example below. […] The bar graph insets for each graph show growth inhibition by HU alone.
as §3
A six-hour exposure was used to test whether the toxicity of the same set of compounds is dependent on ongoing DNA synthesis. […] Thus, in contrast to camptothecin and topotecan, compounds Ia and IIa show no marked time dependency for toxicity (FIG. 6A) and are not inhibited by HU (FIG. 6B), indicating critical mechanistic differences between these compounds and camptothecin.

purified Topo I = molecular target: T1, purified Topo I (Homo sapiens, UniProt P11387); assay: In vitro assay for DNA strand-break formation in the presence of purified Topo I; format: biochemical
T1 sequence (P11387 1-765): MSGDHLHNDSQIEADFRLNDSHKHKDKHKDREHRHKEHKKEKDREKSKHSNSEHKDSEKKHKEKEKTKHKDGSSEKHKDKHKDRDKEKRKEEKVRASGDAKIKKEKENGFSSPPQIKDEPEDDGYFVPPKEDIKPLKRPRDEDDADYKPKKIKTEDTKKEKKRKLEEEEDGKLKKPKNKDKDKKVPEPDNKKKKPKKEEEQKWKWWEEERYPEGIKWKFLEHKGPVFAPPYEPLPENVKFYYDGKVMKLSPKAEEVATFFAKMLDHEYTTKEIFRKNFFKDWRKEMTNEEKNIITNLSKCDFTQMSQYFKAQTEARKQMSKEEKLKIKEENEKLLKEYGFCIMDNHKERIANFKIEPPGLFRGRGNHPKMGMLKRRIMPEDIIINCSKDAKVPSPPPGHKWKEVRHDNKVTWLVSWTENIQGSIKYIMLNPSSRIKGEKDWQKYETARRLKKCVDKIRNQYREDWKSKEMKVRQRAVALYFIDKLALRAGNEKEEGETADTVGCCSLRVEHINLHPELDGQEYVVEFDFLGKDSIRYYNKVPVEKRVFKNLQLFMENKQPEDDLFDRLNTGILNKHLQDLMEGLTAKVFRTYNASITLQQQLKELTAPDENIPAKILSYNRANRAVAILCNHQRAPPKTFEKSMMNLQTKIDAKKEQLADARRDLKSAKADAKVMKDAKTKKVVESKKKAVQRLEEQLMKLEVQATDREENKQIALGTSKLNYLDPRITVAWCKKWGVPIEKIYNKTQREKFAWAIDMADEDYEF

[4] = system: chicken pre-B cell line DT40; assay: Thymidine incorporation toxicity assay in isogenic DT40 cells with or without KU70, RAD52, RAD54; format: cell-based; settings: for effect of loss of homologous recombination (RAD52 or RAD54) on toxicity: DT40 with or without RAD52 or RAD54
Procedure: as §1, §2, §3
In the case of Topo II poisons, the drug/enzyme complex directly produces a DSB, which could occur in all phases of the cell cycle and can apparently be repaired by either DSB repair pathway. Topo I poisons, however, create a single strand break that is converted to a DSB by passage of a replication fork during ongoing DNA synthesis (D'Arpa, et al., Cancer Research 50: 6919–24 (1990), Hsiang, et al., Cancer Research 49: 5077–82 (1989), Holm, et al., Cancer Research 49: 6365–8 (1989)). It has been proposed that DSB's created in this context can only be repaired by homologous recombination, additionally requiring proteins involved in sister chromatid cohesion (Castano, et al., Genes & Development 10: 2564–76 (1996), Castano, et al., Nucleic Acids Research 24: 2404–10 (1996), Walowsky, et al., Journal of Biological Chemistry 274: 7302–8 (1999)).

| SMILES | correlation between MDR1 activity and toxicity/sensitivity (ACHN, SW620, A549, MDA-N) | toxicity of four hour versus six hour exposure (Rat1a fibroblasts [2]) | cell line against which most effective (ACHN, SW620, A549, MDA-N) | effect of loss of homologous recombination (RAD52 or RAD54) on toxicity [4] | toxicity with a two hour exposure (Rat1a fibroblasts [2]) | also measured |
| --- | --- | --- | --- | --- | --- | --- |
| O=C1c2c(O)ccc(O)c2C(=O)c2c(NCCNCCO)ccc(NCCNCCO)c21 [mitoxantrone] |  |  |  |  |  | profile of selective toxicity: toxic to rad50 and rad52 strains, not toxic in rad14 or rad18 strains [1]: Agents with this profile include |
| CC(=O)O[C@H]1C(=O)[C@@]2(C)[C@H]([C@H](OC(=O)c3ccccc3)[C@]3(O)C[C@H](OC(=O)[C@H](O)[C@@H](NC(=O)c4ccccc4)c4ccccc4)C(C)=C1C3(C)C)[C@]1(OC(C)=O)CO[C@@H]1C[C@@H]2O [taxol, reference compound] | clear inverse correlation |  |  |  |  |  |
| CC[C@@]1(O)C(=O)OCc2c1cc1n(c2=O)Cc2cc3c(CN(C)C)c(O)ccc3nc2-1 [topotecan, Topotecan, reference compound] | No correlation | six-hour exposure being much more effective than a four-hour exposure | most effective against the colon carcinoma derived cell line SW620 |  |  | inhibition of toxicity by co-treatment with HU (Rat1a fibroblasts [3]): suppresses the toxicity |
| CC[C@@]1(O)C(=O)OCc2c1cc1n(c2=O)Cc2cc3ccccc3nc2-1 [camptothecin, Camptothecin, reference compound] | No correlation |  | most effective against the colon carcinoma derived cell line SW620 | minor effect | no toxicity | camptothecin concentration required in the in vitro assay relative to cell-based assays (purified Topo I): 100 fold; strand-break induction (purified Topo I): does induce strand-break formation; effect of loss of KU70 on toxicity ([4]; DT40 with or without KU70): unaffected by KU70 expression; effectiveness of 96 hour exposure relative to four hour exposure (Rat1a fibroblasts [2]): ≤ 100 fold |
| COc1cc([C@@H]2c3cc4c(cc3[C@@H](O[C@@H]3O[C@@H]5CO[C@@H](C)O[C@H]5[C@H](O)[C@H]3O)[C@H]3COC(=O)[C@H]23)OCO4)cc(OC)c1O [etoposide, reference compound] |  | little difference in toxicity |  | no effect | nearly full toxicity |  |
